# Test results as given in patent publication US20030157672A1, “Nitrilase from rhodococcus rhodochrous ncimb 11216” (priority 2000, published 2003).
# B1: nitrilase with His6 motif: Recombinant nitA nitrilase of R. rhodochrous NCIMB 11216 with C-terminal His6 motif from E. coli JM 109 (pDHE 18), purified on Ni2+-NTA (protein, UniProt Q03217 2-366, looked up)
# Aliphatic nitrilase: VEYTNTFKVAAVQAQPVWFDAAKTVDKTVSIIAEAARNGCELVAFPEVFIPGYPYHIWVDSPLAGMAKFAVRYHENSLTMDSPHVQRLLDAARDHNIAVVVGISERDGGSLYMTQLVIDADGQLVARRRKLKPTHVERSVYGEGNGSDISVYDMPFARLGALNCWEHFQTLTKYAMYSMHEQVHVASWPGMSLYQPEVPAFGVDAQLTATRMYALEGQTFVVCTTQVVTPEAHEFFCDNDEQRKLIGRGGGFARIIGPDGRDLATPLAEDEEGILYADIDLSAITLAKQAADPVGHYSRPDVLSLNFNQRHTTPVNTAISTIHATHTLVPQSGALDGVRELNGADEQRALPSTHSDETDRATASI
# modifications: C-terminal His6 tag
# notes: Recombinant nitA nitrilase of R. rhodochrous NCIMB 11216 with C-terminal His6 motif from E. coli JM 109 (pDHE 18), purified on Ni2+-NTA
# Tested on: nitrilase (nitA) from Rhodococcus rhodochrous NCIMB 11216 expressed in E. coli JM 109
# Assay: Conversion of nitriles by E. coli JM 109 (pDHE 17 and pDHE 18) cells; NH4 ions produced in supernatant, measured at 620 nm
# Format: biochemical
# Conditions: Experiment 1; E. coli JM 109 (pDHE 17 and pDHE 18) cells, 2 g DBM/l, 30° C., 200 rpm, 1 h; measurement at 620 nm
# Procedure: Various nitriles were converted using the E. coli strains JM 109 (pDHE 17 and pDHE 18). The cells were for this purpose cultured in 250 ml LB/Amp medium+2 g/l rhamnose at 30° C. and 200 rpm for 9 hours (=h). The cells were harvested by-centrifugation (20 min, 4° C., 5000 rpm). The cells were then resuspended in 10 mM phosphate buffer, pH 7.2, so that the concentration of dry biomass (DBM) was 2 g DBM/l. 150 μl portions of the cell suspension were pipetted into each well of a microtiter plate. The plate was then centrifuged. The supernatant was aspirated off and the cell pellets were washed twice with Na2HPO4 [sic] (1.42 g/lin Finnagua, pH 7.2). After another centrifugation step, the cell pellets are [sic] resuspended in the respective substrate solution (150 μl). One substrate was added to each row of 12 in the microtiter plate. A row with substrate solution but without cells was used as control (blank). The microtiter plates were incubated in a shaking incubator at 30° C. and 200 rpm for 1 h. The cells were then spun down and the amount of NH4 [sic] ions produced in the supernatant was determined using a Biomek instrument. Measurement took place at 620 nm, comparing with a calibration plot produced using various NH4OH solutions. The substrates employed in Experiment 1 (see FIG. 3, Table 1) were the following substrates: benzonitrile (=1), 3-hydroxypropionitrile (=2), 2-methylglutaronitrile (=3), 4-chloro-3-hydroxybutyronitrile (=4), malononitrile (=5), crotononitrile (=6), geranonitrile (=7), octanedinitrile (=8), pivalonitrile (=9), aminocapronitrile (=10), 3,4-dihydroxybenzonitrile (=11), 3,5-dibromo-4-hydroxybenzonitrile (=12), 3-cyanopyridine (=13), 4-bromobenzyl cyanide (=14), 4-chlorobenzyl cyanide (=15), 2-phenylbutyronitrile (=16), 2-chlorobenzyl cyanide (=17), 2-pyridylacetonitrile (=18), 4-fluorobenzyl cyanide (=19), 4-methylbenzonitrile (=20), benzyl cyanide (=21). The substrates used in Experiment 2 (see FIG. 4, Table 2), which was carried out in analogy to Experiment 1, were as follows: […]
row,Molecule,"amount of NH4 ions produced in the supernatant (Table 1, Experiment 1)"
1,N#CCc1ccccc1Cl [2-Chlorobenzyl cyanide],0.4530
2,CC(C#N)CCC#N (stereo not shown) [2-Methylglutaronitrile],0.4758
3,CCC(C#N)c1ccccc1 (stereo not shown) [2-Phenylbutyronitrile],0.1376
4,N#CCc1ccccn1 [2-Pyridylacetonitrile],0.1222
5,"N#Cc1ccc(O)c(O)c1 [3,4-Dihydroxybenzonitrile]",0.1569
6,"N#Cc1cc(Br)c(O)c(Br)c1 [3,5-Dibromo-4-hydroxybenzonitrile]",0.1624
7,N#Cc1cccnc1 [3-Cyanopyridine],0.2393
8,N#CCCO [3-Hydroxypropionitrile],0.1785
9,N#CCc1ccc(Br)cc1 [4-Bromobenzyl cyanide],0.5213
10,N#CCC(O)CCl (stereo not shown) [4-Chloro-3-hydroxybutyronitrile],0.1208
11,N#CCc1ccc(Cl)cc1 [4-Chlorobenzyl cyanide],0.4830
12,N#CCc1ccc(F)cc1 [4-Fluorobenzyl cyanide],0.2361
13,Cc1ccc(C#N)cc1 [4-Methylbenzonitrile],0.4326
14,N#CCCCCCN [Aminocapronitrile],0.1236
15,N#Cc1ccccc1 [Benzonitrile],0.4051
16,N#CCc1ccccc1 [Benzyl cyanide],0.2755
17,CC=CC#N [Crotononitrile],0.4946
18,CC(C)=CCC/C(C)=C/C#N [Geranonitrile],0.1517
19,N#CCC#N [Malononitrile],0.1208
20,N#CCCCCCCC#N [Octanedinitrile],0.4548
21,CC(C)(C)C#N [Pivalonitrile],0.1569

# Same assay, conditions: Experiment 2, in analogy to Experiment 1; E. coli JM 109 cells, 30° C., 1 h; measurement at 620 nm
row,Molecule,"amount of NH4 ions produced in the supernatant (Table 2, Experiment 2)"
1,N#CC(N)c1ccccc1 (stereo not shown) [2-Amino-2-phenylacetonitrile],0.0000
2,N#CC(O)CCc1ccccc1 (stereo not shown) [2-Hydroxy-4-phenylbutyronitrile],0.0000
3,CC(O)C#N (stereo not shown) [2-Hydroxypropionitrile],0.0000
4,CC(C#N)c1ccccc1 (stereo not shown) [2-Phenylpropionitrile],0.0000
5,"COC(CC#N)OC [3,3-Dimethoxypropionitrile]",0.1466
6,N#CCc1ccsc1 [3-Cyanomethylthiophene],0.9949
7,N#Cc1ccsc1 [3-Cyanothiophene],1.9038
8,N#CCC(CC#N)c1ccccc1 [3-Phenylglutaronitrile],0.0000
9,N#Cc1ccccc1 [Benzonitrile],1.9518
10,N#C/C=C/C#N [Fumaronitrile],2.2510
11,N#CCCCC#N [Glutaronitrile],2.0809
12,N#CC(O)c1ccccc1 (stereo not shown) [Mandelonitrile],0.0000
13,CCC#N [Propionitrile],0.4135
14,CCCCC#N [Valeronitrile],1.9218
15,N#C/C=C/c1ccccc1 [trans-cinnamonitrile],2.2509

# Tested on: not listed separately
# Assay: Conversion of benzonitrile into benzoic acid by nitrilase crude extract or purified nitrilase (HPLC)
# Format: biochemical
# Conditions: purified using QIAexpress-Ni2+-NTA; enzyme concentration 50 μg/ml; initial benzonitrile 10 mM, 30° C., pH 7.5, 50 mM Tris/HCl, 0.1 mM DTT
# Procedure: For heterologous expression on the laboratory scale, JM 109 (pDHE 17) from a 37° C. overnight culture was inoculated 1:200 in 50 ml dYT complete mediumn (Sambrook et al., 1989) with 0.2% L-rhamnose, and the culture was cultivated with induction in the shaking water bath at 30° C. for 8 h. The cells were then washed once in 50 mM Tris/HCl, pH 7.5, resuspended in the same buffer equivalent to an OD600 of 10, and disrupted by ultrasound treatment. The procedure with JM 109 (pDHE 18) was analogous. The protein pattern of the crude extracts obtained by ultrasound treatment and clarified by centrifugation was determined by SDS polyacrylamide gel electrophoresis, comparing with the noninduced control; with the induction conditions mentioned, the proportion of nitrilase in the protein was about 30% for each of JM 109 (pDHE 17) and JM 109 (pDHE 18).
# The nitrilase with His6 motif from JM 109 (pDHE 18) was purified by washing the cells in 50 mM Tris/HCl, pH 7.5, resuspending equivalent to about 50 OD600/ml and preparing extracts with a French press (2×at 20000 psi). […]
# In this case, one unit is equivalent to the production of 1 μmol of benzoic acid at an initial benzonitrile concentration of 10 mM, 30° C. and pH 7.5. […] The formation of benzoic acid was determined by HPLC (RP18 column, 250×4 [lacuna], mobile phase 47% methanol, 0.3% H3PO4).
row,Molecule,"conversion of 2-benzonitrile [sic] into benzoic acid (specific activity), purified nitrilase"
1,B1,around 11 U/mg
